According to US12559490B2, “Compositions and methods for modulating hair growth” (The Regents of the University of California, priority 2020, dated 2026):
pIC50: −log10 of the molar value.

Columns and labels:
[1] = target: T1, Mitochondrial Pyruvate Carrier (MPC) (Homo sapiens, UniProt O95563+Q9Y5U8); assay: Pyruvate-driven respiration (OCR, XF96) in permeabilized HepG2 cells to test MPC; format: cell-based; details: pyruvate/malate substrate, nine-point dose-response, 1 or 3 replicates
T1 sequence (Q9Y5U8 1-109): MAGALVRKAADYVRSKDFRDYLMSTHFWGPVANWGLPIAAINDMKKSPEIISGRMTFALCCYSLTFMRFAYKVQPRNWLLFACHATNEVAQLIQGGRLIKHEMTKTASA
T1 sequence (O95563 1-127): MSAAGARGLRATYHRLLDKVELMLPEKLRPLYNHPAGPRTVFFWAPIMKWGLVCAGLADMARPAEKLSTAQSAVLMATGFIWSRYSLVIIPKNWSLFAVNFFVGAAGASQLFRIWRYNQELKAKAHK

[2] = Solubility testing in a polyethylene glycol/transcutol/ethanol/DMSO formulation; format: physicochemical; details: for Conc.: concentration tested in formulation of about 25-75% polyethylene glycol, 5-20% transcutol, 5-50% ethanol, 5-10% DMSO, room temperature, Notes column says whether it dissolved; for Notes (dissolved / failed to dissolve): stirred 1 hour, overnight or 24 hours at room temperature
Excerpt: Results are detailed in the table below.

SMILES | pIC50 [1] | Conc. [2] [% w/w] | Notes (dissolved / failed to dissolve) [2]
N#C/C(=C\c1cn(Cc2ccncc2)c2ncccc12)C(=O)O [PP40, Sodium (E)-2-cyano-3-(1-(pyridin-4-ylmethyl)-1H-pyrrolo[2,3-b]pyridin-3-yl)acrylate] | 6.39 |  | 
N#C/C(=C\c1cn(Cc2ccccn2)c2ncccc12)C(=O)O [PP38, Sodium (E)-2-cyano-3-(1-(pyridin-2-ylmethyl)-1H-pyrrolo[2,3-b]pyridin-3-yl)acrylate] | 6.74 |  | 
N#C/C(=C\c1cn(Cc2ccccc2C(F)(F)F)c2ncccc12)C(=O)O [PP26, (E)-2-Cyano-3-(1-(2-(trifluoromethyl)benzyl)-1H-pyrrolo[2,3-b]pyridin-3-yl) acrylic acid] | 7.27 | 0.1 | Stirred 1 hour at room temperature; dissolved
N#C/C(=C\c1cn(Cc2ccc(F)cc2)c2ncccc12)C(=O)O [PP37, (E)-2-cyano-3-(1-(4-fluorobenzyl)-1H-pyrrolo[2,3-b]pyridin-3-yl)acrylic acid] | 6.96 |  | 
N#C/C(=C\c1cn(Cc2cccnc2)c2ncccc12)C(=O)O [PP39, Sodium (E)-2-cyano-3-(1-(pyridin-3-ylmethyl)-1H-pyrrolo[2,3-b]pyridin-3-yl)acrylate] | 6.58 |  | 

Molecules with a higher pIC50 [1], results first:

pIC50 [1] | Conc. [2] [% w/w] | SMILES | Notes (dissolved / failed to dissolve) [2]
7.29 | 0.027 | N#C/C(=C\c1cn(Cc2cc(C(F)(F)F)cc(C(F)(F)F)c2)c2ncccc12)C(=O)O [JXL069, reference compound] | Stirred overnight at room temperature; dissolved
7.44 | 0.15 | N#C/C(=C\c1cn(Cc2cccc(C(F)(F)F)c2)c2ncccc12)C(=O)O [PP27, (E)-2-Cyano-3-(1-(3-(trifluoromethyl)benzyl)-1H-pyrrolo[2,3-b]pyridin-3-yl) acrylic acid] | Stirred 1 hour at room temperature; dissolved
7.47 | 0.1 | N#C/C(=C\c1cn(Cc2ccccc2F)c2ncccc12)C(=O)O [PP35, (E)-2-cyano-3-(1-(2-fluorobenzyl)-1H-pyrrolo[2,3-b]pyridin-3-yl)acrylic acid] | 
7.59 | 0.1 | N#C/C(=C\c1cn(Cc2cccc(F)c2)c2ncccc12)C(=O)O [PP36, (E)-2-cyano-3-(1-(3-fluorobenzyl)-1H-pyrrolo[2,3-b]pyridin-3-yl)acrylic acid] | 
